Entries after “also recorded” stand apart in the source; their conditions may differ.
Legend:
LUHMES neurons = test: ATP assay, annonacin-treated LUHMES neurons; format: cell-based, human; conditions: annonacin + PERK activator 200 nM or PERK inhibitor 300 nM, 48 h, vs no PERK modulator
Method: (§1) Nunc™ Nunclon™ Delta 6-well (for protein and mRNA) or 48-well (for cell assays) plates (Thermo Fisher Scientific, Waltham, Mass., USA) were coated with 100 μg/ml poly-L-lysine (Sigma-Aldrich, St. Louis, Mo., USA) and 5 μg/ml fibronectin (Sigma-Aldrich). LUHMES (Lund Human Mesencephalic) cells, derived from human embryonic ventral mesencephalic cells by conditional immortalization (Tet-off v-myc over-expression) were seeded out in a concentration of 130,000 cells/cm^2 to achieve a confluence of 50%. They were then differentiated for 8 days in a medium of DMEM/F12 (Sigma-Aldrich), 1 μg/ml tetracycline, […] and 490 μg/ml dbcAMP into post-mitotic neurons with a dopaminergic phenotype (Lotharius et al. 2005).
For all experiments with annonacin, the medium was replaced during the intoxication period with new medium containing glucose levels reduced to 250 μM, i.e. the physiological concentration in the human brain.
(§2) ATP assays were conducted using the ViaLight™ plus kit by Lonza according to the manufacturer's instructions. Luminescence was read with the FLUOstar Omega (BMG Labtech) platereader. The data was analyzed using the MARS Data Analysis Software (BMG Labtech) and Prism 6.

[1] = test system: LUHMES neurons overexpressing 4R-tau; test: ATP assay, LUHMES neurons overexpressing 4R-tau; format: cell-based, human; conditions: lentiviral 4R-tau overexpression 10 days, co-administration of PERK modulator
Method: as §1, with “2005). […]” for “2005).”
Concentrated lentiviral particles were titrated by transducing LUHMES cells with different dilutions at 6 hours after initiating differentiation. The lowest dilution at which at least 90% of cells expressed the transgene (as determined by immunohistochemistry of the cells fixed on day 2 post differentiation) was chosen for subsequent experiments. […]
as §2

PERK = molecular target: T1, PERK (Homo sapiens, UniProt Q9NZJ5); test: Western blot for pEIF2A and pNRF2, lentiviral 3R/4R-tau overexpression model; format: cell-based; set-up: endogenous in cells; host or cells: LUHMES neurons (differentiated, human); in A5 transduced with lentivirus for 3R-/4R-tau or mCherry, not for PERK; conditions: for pNRF2 level: 4R-tau overexpressing cells, PERK activator 200 nM or PERK inhibitor 300 nM; for effect on pEIF2A and pNRF2: lentiviral 3R-tau overexpression
T1 sequence (Q9NZJ5 30-1116): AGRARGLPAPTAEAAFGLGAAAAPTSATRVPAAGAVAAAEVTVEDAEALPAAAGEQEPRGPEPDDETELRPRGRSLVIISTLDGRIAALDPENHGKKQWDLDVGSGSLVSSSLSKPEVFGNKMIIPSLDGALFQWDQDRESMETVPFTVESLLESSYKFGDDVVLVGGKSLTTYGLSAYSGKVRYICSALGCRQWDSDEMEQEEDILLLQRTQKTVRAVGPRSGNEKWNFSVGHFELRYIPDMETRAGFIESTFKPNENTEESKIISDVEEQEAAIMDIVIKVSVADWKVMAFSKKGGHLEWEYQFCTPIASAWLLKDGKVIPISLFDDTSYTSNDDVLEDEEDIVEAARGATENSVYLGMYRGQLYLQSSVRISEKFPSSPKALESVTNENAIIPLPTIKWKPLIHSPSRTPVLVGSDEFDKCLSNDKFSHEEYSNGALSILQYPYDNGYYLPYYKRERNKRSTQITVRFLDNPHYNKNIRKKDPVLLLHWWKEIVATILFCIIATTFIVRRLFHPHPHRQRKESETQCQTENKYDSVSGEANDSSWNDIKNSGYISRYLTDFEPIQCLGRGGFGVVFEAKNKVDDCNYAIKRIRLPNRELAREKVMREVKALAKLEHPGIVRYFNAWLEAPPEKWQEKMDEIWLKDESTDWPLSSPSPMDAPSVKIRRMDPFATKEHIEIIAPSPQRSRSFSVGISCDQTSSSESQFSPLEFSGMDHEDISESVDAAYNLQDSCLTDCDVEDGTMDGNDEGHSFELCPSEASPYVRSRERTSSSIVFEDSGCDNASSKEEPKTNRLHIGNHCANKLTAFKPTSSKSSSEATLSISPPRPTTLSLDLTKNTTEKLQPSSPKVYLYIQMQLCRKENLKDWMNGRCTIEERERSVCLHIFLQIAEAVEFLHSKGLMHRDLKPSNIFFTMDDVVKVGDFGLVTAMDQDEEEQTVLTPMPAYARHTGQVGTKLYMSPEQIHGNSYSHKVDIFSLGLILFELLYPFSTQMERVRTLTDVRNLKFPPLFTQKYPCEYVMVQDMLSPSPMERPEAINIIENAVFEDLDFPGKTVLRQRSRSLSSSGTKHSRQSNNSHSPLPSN

LUHMES cells = test: Identification of non-toxic, effective concentrations of PERK modulators (MTT viability, pEIF2A Western blot); format: cell-based, human; conditions: for non-toxic concentration effectively modifying EIF2A phosphorylation: LUHMES neurons, 48 h
Method: Nunc™ Nunclon™ Delta 6-well (for protein and mRNA) or 48-well (for cell assays) plates (Thermo Fisher Scientific, Waltham, Mass., USA) were coated with 100 μg/ml poly-L-lysine (Sigma-Aldrich, St. Louis, Mo., USA) and 5 μg/ml fibronectin (Sigma-Aldrich). […] They were then differentiated for 8 days in a medium of DMEM/F12 (Sigma-Aldrich), 1 μg/ml tetracycline, […] and 490 μg/ml dbcAMP into post-mitotic neurons with a dopaminergic phenotype (Lotharius et al. 2005). […] 20 μg of protein (unless indicated otherwise) were adjusted to equal concentrations between samples by dilution with M-PER and subsequently heated at 95° C. for 5 minutes with Roti®-Load 1 (Carl Roth). SDS-PAGE was performed using Any kD™ Mini-PROTEAN® TGX™ Gels (BioRad, Berkeley, Calif., USA) in a tris-glycine running buffer. The protein was blotted onto PVDF membrane (BioRad) at 70 V for 65 minutes on ice. The membrane was blocked with 1× Roti®-Block solution (Carl Roth) for 1 h and then incubated at 4° C. overnight under gentle shaking with the primary antibody (see Table 5) in TBS with 5% BSA (Cell Signaling Technology) and 0.05% TWEEN (Sigma-Aldrich). Thiazolyl Blue Tetrazolium […] (Sigma Aldrich) was dissolved in sterile PBS to a concentration of 5 mg/ml. […] The 48-well culture plate was then incubated at 37° C. for 1 h, the medium removed completely and frozen at −80° C. for 1 h. The plate was then thawed, 300 μl DMSO (AppliChem, Darmstadt, Germany) was added per well and the plate was shaken to ensure complete dissolution of the violet crystals. 100 μl from each well were transferred to a new 96-well plate and the absorbance was read with the FLUOstar Omega (BMG Labtech) platereader at a wavelength of 590 nm (reference wave length 630 nm). The data was analyzed using the MARS Data Analysis Software (BMG Labtech) and Prism 6.

SMILES | ATP concentration, effect of co-treatment (LUHMES neurons) | 4R-specific toxicity in ATP assay [1] | pNRF2 level (PERK) | pEIF2A level (PERK; 4R-tau overexpression, PERK inhibitor 300 nM) | effect on pEIF2A and pNRF2 (PERK) | non-toxic concentration effectively modifying EIF2A phosphorylation (LUHMES cells) [nM] | pEIF2A level (PERK; lentiviral 3R or 4R-tau overexpression, PERK activator 200 nM) | doses at which detrimental effects of UPR overactivation were seen (LUHMES cells; in vitro) [µM]
Cn1cc(-c2ccc3c(c2)CCN3C(=O)Cc2cccc(C(F)(F)F)c2)c2c(N)ncnc21 [GSK2606414, reference compound] | slightly improved ATP concentrations at the single annonacin concentration of 12.5 nM; also recorded: significant only at an annonacin concentration of 12.5 nM | provided protection in the ATP assay, but to a lesser extent | not pNRF2 | decreased | no significant effect | 300 |  | 
CCN(CC)CCC(=O)N1N=C(c2c(-c3ccccc3)c3cc(Br)ccc3[nH]c2=O)CC1c1ccc(Br)cc1 (stereo not shown) [CCT020312, 6-bromo-3-[5-(4-bromo-phenyl)-1-(3-diethylamino-propionyl)-4,5-dihydro-1H-pyrazol-3-yl]-4-phenyl-1H-quinolin-2-one] | significant improvement | reduced significantly | significantly increased |  | no significant effect | 200 | did not increase | > 3
